Test results published in patent US20180161427A1, “COMBINATION OF AN ANTI-IL-10 ANTIBODY AND A CPG-C TYPE OLIGONUCLEOTIDE FOR TREATING CANCER” (MERCK SHARP & DOHME CORP., priority 2015, published 2018).
Strand notation (5' to 3'): a small letter for the sugar, then the base; units joined by * are phosphorothioate-linked, units joined directly phosphodiester-linked; [ ] holds rarer units or linkages, { } end groups; capitals alone tell only the bases. d = 2'-deoxy (DNA)

Experiments:
[1] = test system: Human peripheral blood mononuclear cells (PBMCs); experiment: Induction of IFNα2a and IL-10 in human PBMCs (48 hours, Meso Scale Discovery kits); assay type: cell-based
Protocol: Human peripheral blood mononuclear cells (PBMCs) were isolated from buffy coats from two donors with Ficoll-Paque™ PLUS (GE Healthcare Bio-Sciences, Pittsburgh, Pa.) using standard Ficoll separation methods. Isolated PBMCs were washed twice in phosphate buffered saline (PBS) containing 2% fetal bovine serum (FBS), and 2 mM ethylenediaminetetraacetic acid (EDTA). The cells were resuspended and cultured in 96-well U-bottom plates at 1×10^6 cells per well in RPMI 1640 containing 10% FBS, 2 mM L-glutamine, 100 U/mL pencillin and 100 μg/mL streptomycin. The cells were cultured in the presence of C59-08 at doses ranging from 0.016 μM to 5 μM or 7 μM control ODN 1040 in a humidifed incubator at 37° C., 5% CO2 in final volume of 0.2 mL for 48 hours. Supernatants were harvested and assayed for IFNα2a and IL-10 using Meso Scale Discovery human IFNα2a and human IL-10 tissue culture kits (Rockville, Md.).

[2] = test system: TC-1 tumors; experiment: Anti-tumor activity in mouse TC-1 bilateral tumor model; assay type: in vivo; conditions: antibody 10 mg/kg IP
Text: Approximately seven to eight week old female C57BL/6J mice were obtained from Jackson Laboratory (Sacramento, Calif.). Conventional animal chow and water were provided ad libitum. Animals were housed for one week prior to the start of the study. The average weight of the animals at the start of the study (i.e. tumor implantation) was 19 grams.
The TC-1 cell line, provided by Johns Hopkins University (Baltimore, Md.) is derived from mouse primary lung epithelial cells that were cotransformed with human papilloma virus (HPV-16) E6 and E7 and c-Ha.ras oncogene (Lin K Y et al. Cancer Res. 1996 Jan. 1, 56(1):21-6). TC-1 cells are syngeneic to C57BL6/J strain.
The TC-1 cells were cultured in DMEM supplemented with 10% fetal bovine serum and 0.4 mg/mL Geneticin. Sub-confluent TC-1 cells were injected subcutaneously (SC) in 0.1 mL of serum-free DMEM in both lower dorsal flanks (1×10^5 in right flank and 0.5×10^5 in left flank) of each animal. Animals were first shaved with electronic clippers in the areas that were used for the implantation.
Tumors were measured the day before the first dose and twice a week thereafter. Tumor length and width were measured using electronic calipers and tumor volume determined using the formula Volume (mm^3)=0.5×Length×[…] where length is the longer dimension. Animals were weighed the day before the first dose and twice a week thereafter. […]

[3] = test system: human tumor histocultures (renal cell carcinoma, NSCLC, bladder and colorectal cancer); experiment: Ex vivo treatment of human tumor histocultures, mRNA expression by real-time quantitative PCR; assay type: cell-based; conditions: 0.1, 0.5, and 1 μM, 24 hours; RCC (n=5), NSCLC (n=3), bladder (n=1), colorectal (n=1) histocultures
Protocol: Human tumor specimens from patients were obtained from commercial sources (Bio-Options, Folio, Coversant Bio, and Boston BioSource) and University of Rochester.
Fresh tumor tissues were collected within 1 hour following surgery and placed into AQIX transportation media (AQIX, UK). Tissues were transported overnight at 4° C. to Merck Research Laboratories, Palo Alto, Calif.
The tumors were embedded in UltraPure™ low melting point agarose (Invitrogen, Carlsbad, Calif.) and were cut 400 μm with Mcllwain™ Tissue Chopper (Stoelting Co., Wood Dale, Ill.). The tumor slices were first set on the Millicell-CM cell culture insert (Millipore, Billerica, Calif.) and cultured at the interface between air and medium of 1 ml DMEM supplemented with 4.5 g/L glucose, L-glutamine, sodium pyruvate (Mediatech, Inc., Manassas, Va.), 10% FBS (SAFC Biosciences, Lenexa, Kans.), 100 U/ml penicillin, and 100 ug/ml streptomycin in humidifed incubator at 37° C., 5% CO2.
The tumor slices were cultured in the presence of 0.1, 0.5, and 1 μM C59-08 or 1 μM control ODN 1040 for 24 hours. The tumor samples were snap frozen in dry ice and stored at […] prior to processing.
Total RNA was isolated by homogenization into RNA STAT-60 (Tel-Test, Friendswood, Tex.) using a polytron homogenizer. The total RNA was extracted according to the manufacturer's protocol. After precipitation with isopropanol, total RNA was re-extracted with phenol:chloroform:isoamyl alcohol (25:24:1) (Sigma-Aldrich, St. Louis, Mo.) using phase-lock light tubes.
DNase-treated total RNA was reverse-transcribed using QuantiTect Reverse Transcription (Qiagen, Valencia, Calif.) according to manufacturer's protocol. […] Real-time quantitative PCR on 10 ng of cDNA from each sample was performed using unlabeled primers at 900 nM each with 250 nM of FAM-labeled probe in a TAQMAN™ RTqPCR reaction on the Fluidigm Biomark sequence detection system (Fluidigm, Foster City, Calif.). Levels of ubiquitin were measured in a separate reaction and were used to normalize the data by the Δ-Δ Ct method. […]

[4] = 2 donors, 0.016 μM to 5 μM, supernatant

Q: “5′-TCGAACGTTCGAACGTTCGAACGTTCGAAT-3′ (DNA dT*dC*dG*dA*dA*dC*dG*dT*dT*dC*dG*dA*dA*dC*dG*dT*dT*dC*dG*dA*dA*dC*dG*dT*dT*dC*dG*dA*dA*dT) [Compound C59-08, oligodeoxynucleotide with a phosphorothioate backbone and 5′OH and 3′OH; CpG class C type TLR9 agonist]” was tested. Which “optimal concentration for IFNα2a and IL-10 production” value [1] did it give?
A: The value was 0.2 µM.

Q: What about the IFNα2a production [1, 4] of the same substance?
A: The IFNα2a production was “induces”.

Q: And the IL-10 production [1, 4]?
A: Its IL-10 production is “induces”.

Q: What about the “Complete regressions (CRs) of non-injected tumors” value ([2]; left flank tumor, ODN IT only in right tumors on Days 0, 4, 8, 12) of the same substance?
A: The value was “did not result in CRs”.

Q: And the “Complete regressions (CRs) of injected tumors” value ([2]; right flank tumor, ODN IT (C59-08 2.5 mg/kg, CpG 1826 1 mg/kg) on Days 0, 4, 8, 12)?
A: Its value is “did not result in CRs”.

Q: What about the “mRNA expression of IFNα-inducible genes (IFNα2, MCP1, MCP2, OAS2, IP-10, GBP1, ISG-54, MxB, and TRAIL)” value [3] of the same substance?
A: Its value is “induced”.

Q: What about the “mRNA expression of cytokines (IFNβ, IL-10, IL-12, IL-6, and TNFα)” value [3] of the same substance?
A: The value was “induced”.

Q: What about the “mRNA expression of immune activation markers (CD80, CD86, CD40, CD70 and OX40L)” value [3] of the same substance?
A: The value was “induced”.
